Among the data in patent US11083729B2, “Methods of treating cancer with small molecule NF-κB inhibitors” (ImmuneTarget, Inc., priority 2017, dated 2021) are IC50 values, retold here.

The structures appear in SMILES notation. Bounds are passed on as bounds.

One may read the IC50 as the concentration that gives 50% inhibition.

The experiment has as its target T1, c-Rel protein (Homo sapiens, UniProt Q04864).
T1 sequence (Q04864 1-619): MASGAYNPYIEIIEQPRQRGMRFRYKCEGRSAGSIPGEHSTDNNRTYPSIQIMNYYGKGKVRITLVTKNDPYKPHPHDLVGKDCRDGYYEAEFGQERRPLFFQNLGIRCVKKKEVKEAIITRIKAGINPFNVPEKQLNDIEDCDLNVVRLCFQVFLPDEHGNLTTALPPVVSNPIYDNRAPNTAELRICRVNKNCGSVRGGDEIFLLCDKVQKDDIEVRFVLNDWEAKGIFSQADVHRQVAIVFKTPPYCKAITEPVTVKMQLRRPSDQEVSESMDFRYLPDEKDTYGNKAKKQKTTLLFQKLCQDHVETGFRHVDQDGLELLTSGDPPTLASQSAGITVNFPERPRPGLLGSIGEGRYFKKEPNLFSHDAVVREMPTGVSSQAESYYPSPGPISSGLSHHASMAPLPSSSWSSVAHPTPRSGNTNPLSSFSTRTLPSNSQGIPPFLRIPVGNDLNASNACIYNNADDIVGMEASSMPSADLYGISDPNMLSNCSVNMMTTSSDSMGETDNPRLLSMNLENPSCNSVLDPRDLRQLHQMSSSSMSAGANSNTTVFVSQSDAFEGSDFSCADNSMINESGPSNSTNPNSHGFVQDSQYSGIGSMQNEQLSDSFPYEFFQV
The experiment is described as follows: Electrophoretic Mobility Shift Assay (EMSA), c-Rel binding to CD28RE oligonucleotide. Particulars: 10 nM c-Rel protein. On the procedure:
DNA binding reaction (20 μL) was carried out in 1×DNA Binding Buffer (10 mM Tris, 40 mM NaCl, 1 mM EDTA, 4% glycerol) with 10 nM c-Rel protein and 0.5 ng phosphor-labeled CD28RE oligonucleotide for 10 minutes at room temperature in 96-well plates. Test compounds, in serial dilutions, were added into each well, and further incubated for 15 minutes before loading onto native 5% polyacrylamide gel. Electrophoresis proceeded for 2.5 hours at 160V. Radioactive signals were quantified using Phospho-Imager. IC50 of compounds of example 1 to 75 were determined by quantifying the intensity of Rel/NF-κB inhibition in EMSA using phospho-imager. An example of EMSA data of the present invention is shown for compound 6 in FIG. 2.
On the technique in general: In EMSA bound probe runs differently from free probe, usually more slowly.
In the case of `COc1cccc2cc3c(=O)[nH]c(=O)nc-3oc12` [compound 1, 9-methoxy-2H-chromeno[2,3-d]pyrimidine-2,4(3H)-dione], the half-inhibitory concentration (IC50) was under 2 µM.

With `CCOc1cccc2cc3c(=O)[nH]c(=O)nc-3oc12` [compound 2, 9-ethoxy-2H-chromeno[2,3-d]pyrimidine-2,4(3H)-dione], the concentration for half-maximal inhibition (IC50) is under 2 µM.

For `COc1cc(Cl)cc2cc3c(=O)[nH]c(=O)nc-3oc12` [compound 3, 7-chloro-9-methoxy-2H-chromeno[2,3-d]pyrimidine-2,4(3H)-dione], the IC50 is under 2 µM.

Regarding `COc1cc(Br)cc2cc3c(=O)[nH]c(=O)nc-3oc12` [compound 4, 7-bromo-9-methoxy-2H-chromeno[2,3-d]pyrimidine-2,4(3H)-dione], the IC50 is under 2 µM.

On to `COc1ccc2cc3c(=O)[nH]c(=O)nc-3oc2c1` [compound 6, 8-methoxy-2H-chromeno[2,3-d]pyrimidine-2,4(3H)-dione], for which the concentration for half-maximal inhibition (IC50) was under 1 µM.

Take `COc1cc(Cl)cc2cc3c(=O)[nH]c(=S)nc-3oc12` [compound 7, 7-chloro-9-methoxy-2-thioxo-2H-chromeno[2,3-d]pyrimidin-4(3H)-one]: the IC50 is under 2 µM.

In the case of `COc1ccc2cc3c(=O)[nH]c(=S)nc-3oc2c1` [compound 8, 8-methoxy-2-thioxo-2H-chromeno[2,3-d]pyrimidin-4(3H)-one], the half-maximal inhibitory concentration (IC50) was under 0.5 µM.

For `O=c1nc2oc3ccccc3cc-2c(=O)[nH]1` [compound 9, 2H-chromeno[2,3-d]pyrimidine-2,4(3H)-dione], the 50% inhibitory concentration (IC50) is under 5 µM.

Take `COc1ccc2oc3nc(=O)[nH]c(=O)c-3cc2c1` [compound 10, 7-methoxy-2H-chromeno[2,3-d]pyrimidine-2,4(3H)-dione]: the IC50 was under 1 µM.

Turning to `O=c1nc2oc3cc(O)ccc3cc-2c(=O)[nH]1` [compound 11, 8-hydroxy-2H-chromeno[2,3-d]pyrimidine-2,4(3H)-dione], the IC50 is under 1 µM.

As to `Cc1ccc2cc3c(=O)[nH]c(=O)nc-3oc2c1` [compound 12, 8-methyl-2H-chromeno[2,3-d]pyrimidine-2,4(3H)-dione], the IC50 is under 1 µM.

In the case of `CCOc1ccc2cc3c(=O)[nH]c(=O)nc-3oc2c1` [compound 13, 8-ethoxy-2H-chromeno[2,3-d]pyrimidine-2,4(3H)-dione], the IC50 was under 1 µM.

For `COc1ccc2oc3nc(=S)[nH]c(=O)c-3cc2c1` [compound 15, 7-methoxy-2-thioxo-2H-chromeno[2,3-d]pyrimidin-4(3H)-one], the 50% inhibitory concentration (IC50) was under 0.5 µM.

For the compound `O=c1[nH]c(=S)nc2oc3cc(O)ccc3cc1-2` [compound 16, 8-hydroxy-2-thioxo-2H-chromeno[2,3-d]pyrimidin-4(3H)-one], the IC50 is under 0.5 µM.

Turning to `Cc1ccc2cc3c(=O)[nH]c(=S)nc-3oc2c1` [compound 17, 8-methyl-2-thioxo-2H-chromeno[2,3-d]pyrimidin-4(3H)-one], the 50% inhibitory concentration (IC50) is under 0.5 µM.

As to `COc1cc(OC)c2cc3c(=O)[nH]c(=S)nc-3oc2c1` [compound 18, 6,8-dimethoxy-2-thioxo-2H-chromeno[2,3-d]pyrimidin-4(3H)-one], the concentration for half-maximal inhibition (IC50) is under 0.5 µM.

On to `CCCOc1ccc2cc3c(=O)[nH]c(=O)nc-3oc2c1` [compound 19, 8-propoxy-2H-chromeno[2,3-d]pyrimidine-2,4(3H)-dione], for which the half-inhibitory concentration (IC50) is under 1 µM.

Regarding `CCCOc1cc2oc3nc(=O)[nH]c(=O)c-3cc2cc1Cl` [compound 20, 7-chloro-8-propoxy-2H-chromeno[2,3-d]pyrimidine-2,4(3H)-dione], the 50% inhibitory concentration (IC50) is under 1 µM.

On to `CCCCCCOc1ccc2cc3c(=O)[nH]c(=O)nc-3oc2c1` [compound 21, 8-(n-hexyloxy)-2H-chromeno[2,3-d]pyrimidine-2,4(3H)-dione], for which the concentration for half-maximal inhibition (IC50) is under 1 µM.

As for `CCOc1ccc2cc3c(=O)[nH]c(=O)nc-3oc2c1Cl` [compound 22, 9-chloro-8-ethoxy-2H-chromeno[2,3-d]pyrimidine-2,4(3H)-dione], the IC50 was under 1 µM.

As to `CC(C)COc1ccc2cc3c(=O)[nH]c(=O)nc-3oc2c1` [compound 23, 8-isobutoxy-2H-chromeno[2,3-d]pyrimidine-2,4(3H)-dione], the IC50 is under 1 µM.

Turning to `CCCCn1c(=O)nc2oc3cc(OCC)ccc3cc-2c1=O` [compound 24, 3-(n-butyl)-8-ethoxy-2H-chromeno[2,3-d]pyrimidine-2,4(3H)-dione], the 50% inhibitory concentration (IC50) is under 1 µM.

As to `CCCc1cc2oc3nc(=O)[nH]c(=O)c-3cc2cc1Cl` [compound 25, 7-chloro-8-propyl-2H-chromeno[2,3-d]pyrimidine-2,4(3H)-dione], the IC50 is under 1 µM.

On to `CCCCn1c(=O)nc2oc3cc(OCC)c(Cl)cc3cc-2c1=O` [compound 26, 3-butyl-7-chloro-8-ethoxy-2H-chromeno[2,3-d]pyrimidine-2,4(3H)-dione], for which the IC50 was under 1 µM.

Consider `Cc1cc2oc3nc(=O)[nH]c(=O)c-3cc2cc1F` [compound 27, 7-fluoro-8-methyl-2H-chromeno[2,3-d]pyrimidine-2,4(3H)-dione], for which the concentration for half-maximal inhibition (IC50) is under 0.5 µM.

For `CCOc1cc2oc3nc(=O)[nH]c(=O)c-3cc2cc1F` [compound 28, 8-ethoxy-7-fluoro-2H-chromeno[2,3-d]pyrimidine-2,4(3H)-dione], the IC50 is under 0.5 µM.

In the case of `CCCCOc1cc2oc3nc(=O)[nH]c(=O)c-3cc2cc1F` [compound 29], the IC50 was under 0.5 µM.

As to `CCCCCOc1cc2oc3nc(=O)[nH]c(=O)c-3cc2cc1F` [compound 30], the IC50 was under 0.5 µM.

For the compound `CCCCCCOc1cc2oc3nc(=O)[nH]c(=O)c-3cc2cc1F` [compound 31], the IC50 was under 0.5 µM.

As for `CCCCCCCOc1cc2oc3nc(=O)[nH]c(=O)c-3cc2cc1F` [compound 32], the IC50 was under 0.5 µM.

With `CC(C)CCOc1cc2oc3nc(=O)[nH]c(=O)c-3cc2cc1F` [compound 33], the IC50 was under 0.5 µM.

`CC(C)(C)CCOc1cc2oc3nc(=O)[nH]c(=O)c-3cc2cc1F` [compound 34]: the concentration for half-maximal inhibition (IC50) was under 0.5 µM.

`CC(C)CCCOc1cc2oc3nc(=O)[nH]c(=O)c-3cc2cc1F` [compound 35]: the half-maximal inhibitory concentration (IC50) was under 1 µM.

In the case of `CC(C)(C)COc1cc2oc3nc(=O)[nH]c(=O)c-3cc2cc1F` [compound 36], the IC50 is under 0.5 µM.

On to `CCCCCCOc1cc2oc3nc(=O)[nH]c(=O)c-3cc2cc1Cl` [compound 37], for which the half-maximal inhibitory concentration (IC50) is under 0.5 µM.

`CC(C)COc1cc2oc3nc(=O)[nH]c(=O)c-3cc2cc1Cl` [compound 38]: the half-inhibitory concentration (IC50) is under 0.5 µM.

For `CCCCCOc1ccc2cc3c(=O)[nH]c(=O)nc-3oc2c1Cl` [compound 39], the IC50 is under 0.5 µM.

Take `CC(C)CCOc1ccc2cc3c(=O)[nH]c(=O)nc-3oc2c1Cl` [compound 40]: the IC50 is under 0.5 µM.

As to `CC(C)(C)CCOc1ccc2cc3c(=O)[nH]c(=O)nc-3oc2c1Cl` [compound 41], the half-inhibitory concentration (IC50) was under 0.5 µM.

Turning to `CCCCCCCOc1ccc2cc3c(=O)[nH]c(=O)nc-3oc2c1Cl` [compound 42], the IC50 was under 0.5 µM.

Regarding `CCCCOc1ccc2cc3c(=O)[nH]c(=O)nc-3oc2c1Cl` [compound 43], the half-maximal inhibitory concentration (IC50) is under 0.5 µM.

On to `CCCCCCOc1ccc2cc3c(=O)[nH]c(=O)nc-3oc2c1Cl` [compound 44], for which the half-inhibitory concentration (IC50) was under 0.5 µM.

With `CCCCOc1ccc2cc3c(=O)[nH]c(=O)nc-3oc2c1F` [compound 45], the IC50 was under 0.5 µM.

Take `CCCCCCOc1ccc2cc3c(=O)[nH]c(=O)nc-3oc2c1F` [compound 46]: the IC50 was under 0.5 µM.

As for `CC(C)CCCOc1ccc2cc3c(=O)[nH]c(=O)nc-3oc2c1F` [compound 47], the half-inhibitory concentration (IC50) is under 1 µM.

Consider `CC(C)COc1ccc2cc3c(=O)[nH]c(=O)nc-3oc2c1F` [compound 48], for which the IC50 was under 0.5 µM.

As for `CCOc1ccc2cc3c(=O)[nH]c(=O)nc-3sc2c1` [compound 49, 8-ethoxy-2H-thiochromeno[2,3-d]pyrimidine-2,4(3H)-dione], the 50% inhibitory concentration (IC50) was under 1 µM.

As for `CCCCOc1ccc2cc3c(=O)[nH]c(=O)nc-3oc2c1` [compound 50], the IC50 was under 1 µM.

Consider `CC(=O)OCCCCOc1ccc2cc3c(=O)[nH]c(=O)nc-3oc2c1` [compound 51], for which the concentration for half-maximal inhibition (IC50) was under 1 µM.

`CCCCCCCOc1ccc2cc3c(=O)[nH]c(=O)nc-3oc2c1F` [compound 52]: the IC50 is under 0.5 µM.

On to `O=C(O)CCCCCOc1ccc2cc3c(=O)[nH]c(=O)nc-3oc2c1Cl` [compound 53, 6-((9-chloro-2,4-dioxo-3,4-dihydro-2H-chromeno[2,3-d]pyrimidin-8-yl)oxy)hexanoic acid], for which the IC50 is under 5 µM.

Regarding `O=C(O)CCCOc1ccc2cc3c(=O)[nH]c(=O)nc-3oc2c1Cl` [compound 55], the half-maximal inhibitory concentration (IC50) was under 5 µM.

Consider `O=C(O)COc1ccc2cc3c(=O)[nH]c(=O)nc-3oc2c1Cl` [compound 56], for which the IC50 was under 5 µM.

With `CC(=O)OCCCCCCOc1ccc2cc3c(=O)[nH]c(=O)nc-3oc2c1Cl` [compound 58], the IC50 was under 5 µM.
